Assays:
Experiment in all cases: Test Example-1: herbicidal effect by a treatment before weeds are generated under submerged conditions
Format in all cases: in vivo
Settings in all cases: 500 g a.i/ha, pre-emergence treatment, about 15 days after treatment, score 0-5
[1] = test system: Cyperus difformis (smallflower umbrella plant)
Protocol: (§1) Using the formulation prepared according to the methods described above, the herbicidal effect of the bicyclic pyrazolinone derivative of the invention according to the methods shown in Test Examples below was examined. The herbicidal effect with respect to the test weeds or the phytotoxicity with respect to the test crops was examined according to the following criteria, and evaluated in six stage scores of 0 to 5.
(§2) A plastic cup of 30 cm^2 was filled with paddy soil, soil puddling was performed, seeds of Echinochloa oryzicola (barnyard grass), Cyperus difformis (smallflower umbrella plant), Monochoria vaginalis (monochoria), Scirpus juncoides (bulrush), and Eleocharis acicularis (needle spikerush), and Lindernia procumbens (common false pimpernel), Rotala indica (indian toothcup), Elatine triandra (waterwort) as other annual broad leaf weeds were seeded therein, and kept in a submerged state. A wettable powder or an emulsifiable concentrate of the compound of the present invention prepared according to Formulation Example was diluted on the weed seeding day, and a submersing treatment was performed so as to be a predetermined dosage. The herbicidal effect with respect to the test weeds about 15 days after the treatment was evaluated according to the evaluation criteria in six stages of 0 to 5 described above.

[2] = test system: Echinochloa oryzicola (barnyard grass)
Protocol: as §1, §2

[3] = test system: Eleocharis acicularis (needle spikerush)
Protocol: as §1, §2

[4] = test system: Monochoria vaginalis (monochoria)
Protocol: as §1, §2

[5] = test system: Scirpus juncoides (bulrush)
Protocol: as §1, §2

[6] = test system: other annual broad leaf weeds (Lindernia procumbens, Rotala indica, Elatine triandra)
Protocol: as §1, §2

SMILES: COC(=O)C=C(COc1cc(-c2c(Cl)n3n(c2=O)CCCC3)c(Cl)cc1Cl)OC (mixture of isomers) [Compound 2-5]
- Herbicidal effect Cyperus difformis [1]: 5 (Herbicidal effect/phytotoxicity was 90% or greater)
- Herbicidal effect Echinochloa oryzicola [2]: 5 (Herbicidal effect/phytotoxicity was 90% or greater)
- Herbicidal effect Eleocharis acicularis [3]: 5 (Herbicidal effect/phytotoxicity was 90% or greater)
- Herbicidal effect Monochoria vaginalis [4]: 5 (Herbicidal effect/phytotoxicity was 90% or greater)
- Herbicidal effect Scirpus juncoides [5]: 5 (Herbicidal effect/phytotoxicity was 90% or greater)
- Herbicidal effect Broadleaf weed [6]: 5 (Herbicidal effect/phytotoxicity was 90% or greater)

SMILES: C=CCOC(=O)C=C(COc1cc(-c2c(Cl)n3n(c2=O)CCCC3)c(F)cc1Cl)OCC (mixture of isomers) [Compound 2-11]
- Herbicidal effect Cyperus difformis [1]: 5 (Herbicidal effect/phytotoxicity was 90% or greater)
- Herbicidal effect Echinochloa oryzicola [2]: 5 (Herbicidal effect/phytotoxicity was 90% or greater)
- Herbicidal effect Eleocharis acicularis [3]: 5 (Herbicidal effect/phytotoxicity was 90% or greater)
- Herbicidal effect Monochoria vaginalis [4]: 5 (Herbicidal effect/phytotoxicity was 90% or greater)
- Herbicidal effect Scirpus juncoides [5]: 5 (Herbicidal effect/phytotoxicity was 90% or greater)
- Herbicidal effect Broadleaf weed [6]: 5 (Herbicidal effect/phytotoxicity was 90% or greater)

SMILES: CCOC(=CC(=O)OC)COc1cc(-c2c(Cl)n3n(c2=O)CCCC3)c(F)cc1Cl (mixture of isomers) [Compound 2-12]
- Herbicidal effect Cyperus difformis [1]: 5 (Herbicidal effect/phytotoxicity was 90% or greater)
- Herbicidal effect Echinochloa oryzicola [2]: 5 (Herbicidal effect/phytotoxicity was 90% or greater)
- Herbicidal effect Eleocharis acicularis [3]: 5 (Herbicidal effect/phytotoxicity was 90% or greater)
- Herbicidal effect Monochoria vaginalis [4]: 5 (Herbicidal effect/phytotoxicity was 90% or greater)
- Herbicidal effect Scirpus juncoides [5]: 5 (Herbicidal effect/phytotoxicity was 90% or greater)
- Herbicidal effect Broadleaf weed [6]: 5 (Herbicidal effect/phytotoxicity was 90% or greater)

SMILES: CCCOC(=CC(=O)OC)COc1cc(-c2c(Cl)n3n(c2=O)CCCC3)c(F)cc1Cl (mixture of isomers) [Compound 2-13]
- Herbicidal effect Cyperus difformis [1]: 5 (Herbicidal effect/phytotoxicity was 90% or greater)
- Herbicidal effect Echinochloa oryzicola [2]: 5 (Herbicidal effect/phytotoxicity was 90% or greater)
- Herbicidal effect Eleocharis acicularis [3]: 5 (Herbicidal effect/phytotoxicity was 90% or greater)
- Herbicidal effect Monochoria vaginalis [4]: 5 (Herbicidal effect/phytotoxicity was 90% or greater)
- Herbicidal effect Scirpus juncoides [5]: 5 (Herbicidal effect/phytotoxicity was 90% or greater)
- Herbicidal effect Broadleaf weed [6]: 5 (Herbicidal effect/phytotoxicity was 90% or greater)

SMILES: CCOC(=O)C=C(COc1cc(-c2c(Cl)n3n(c2=O)CCCC3)c(F)cc1Cl)OCC (mixture of isomers) [Compound 2-19]
- Herbicidal effect Cyperus difformis [1]: 5 (Herbicidal effect/phytotoxicity was 90% or greater)
- Herbicidal effect Echinochloa oryzicola [2]: 5 (Herbicidal effect/phytotoxicity was 90% or greater)
- Herbicidal effect Eleocharis acicularis [3]: 5 (Herbicidal effect/phytotoxicity was 90% or greater)
- Herbicidal effect Monochoria vaginalis [4]: 5 (Herbicidal effect/phytotoxicity was 90% or greater)
- Herbicidal effect Scirpus juncoides [5]: 5 (Herbicidal effect/phytotoxicity was 90% or greater)
- Herbicidal effect Broadleaf weed [6]: 5 (Herbicidal effect/phytotoxicity was 90% or greater)

SMILES: CCOC(=CC(=O)OC(C)C)COc1cc(-c2c(Cl)n3n(c2=O)CCCC3)c(F)cc1Cl [Compound 2-26]
- Herbicidal effect Cyperus difformis [1]: 5 (Herbicidal effect/phytotoxicity was 90% or greater)
- Herbicidal effect Echinochloa oryzicola [2]: 5 (Herbicidal effect/phytotoxicity was 90% or greater)
- Herbicidal effect Eleocharis acicularis [3]: 5 (Herbicidal effect/phytotoxicity was 90% or greater)
- Herbicidal effect Monochoria vaginalis [4]: 5 (Herbicidal effect/phytotoxicity was 90% or greater)
- Herbicidal effect Scirpus juncoides [5]: 5 (Herbicidal effect/phytotoxicity was 90% or greater)
- Herbicidal effect Broadleaf weed [6]: 5 (Herbicidal effect/phytotoxicity was 90% or greater)

SMILES: C=C(C)COC(=O)C=C(COc1cc(-c2c(Cl)n3n(c2=O)CCCC3)c(F)cc1Cl)OCCC [Compound 2-33]
- Herbicidal effect Cyperus difformis [1]: 5 (Herbicidal effect/phytotoxicity was 90% or greater)
- Herbicidal effect Echinochloa oryzicola [2]: 5 (Herbicidal effect/phytotoxicity was 90% or greater)
- Herbicidal effect Eleocharis acicularis [3]: 5 (Herbicidal effect/phytotoxicity was 90% or greater)
- Herbicidal effect Monochoria vaginalis [4]: 5 (Herbicidal effect/phytotoxicity was 90% or greater)
- Herbicidal effect Scirpus juncoides [5]: 5 (Herbicidal effect/phytotoxicity was 90% or greater)
- Herbicidal effect Broadleaf weed [6]: 5 (Herbicidal effect/phytotoxicity was 90% or greater)

SMILES: CCCOC(=CC(=O)OCC(C)C)COc1cc(-c2c(Cl)n3n(c2=O)CCCC3)c(F)cc1Cl [Compound 2-34]
- Herbicidal effect Cyperus difformis [1]: 5 (Herbicidal effect/phytotoxicity was 90% or greater)
- Herbicidal effect Echinochloa oryzicola [2]: 5 (Herbicidal effect/phytotoxicity was 90% or greater)
- Herbicidal effect Eleocharis acicularis [3]: 5 (Herbicidal effect/phytotoxicity was 90% or greater)
- Herbicidal effect Monochoria vaginalis [4]: 5 (Herbicidal effect/phytotoxicity was 90% or greater)
- Herbicidal effect Scirpus juncoides [5]: 5 (Herbicidal effect/phytotoxicity was 90% or greater)
- Herbicidal effect Broadleaf weed [6]: 5 (Herbicidal effect/phytotoxicity was 90% or greater)

SMILES: O=c1c(-c2cc(Oc3ccccc3O)c(Cl)cc2F)c(Cl)n2n1CCCC2 [Compound 3-1]
- Herbicidal effect Cyperus difformis [1]: 5 (Herbicidal effect/phytotoxicity was 90% or greater)
- Herbicidal effect Echinochloa oryzicola [2]: 5 (Herbicidal effect/phytotoxicity was 90% or greater)
- Herbicidal effect Eleocharis acicularis [3]: 5 (Herbicidal effect/phytotoxicity was 90% or greater)
- Herbicidal effect Monochoria vaginalis [4]: 5 (Herbicidal effect/phytotoxicity was 90% or greater)
- Herbicidal effect Scirpus juncoides [5]: 5 (Herbicidal effect/phytotoxicity was 90% or greater)
- Herbicidal effect Broadleaf weed [6]: 5 (Herbicidal effect/phytotoxicity was 90% or greater)

SMILES: O=c1c(-c2cc(Oc3cccc(O)c3)c(Cl)cc2F)c(Cl)n2n1CCCC2 [Compound 3-4]
- Herbicidal effect Cyperus difformis [1]: 5 (Herbicidal effect/phytotoxicity was 90% or greater)
- Herbicidal effect Echinochloa oryzicola [2]: 5 (Herbicidal effect/phytotoxicity was 90% or greater)
- Herbicidal effect Eleocharis acicularis [3]: 5 (Herbicidal effect/phytotoxicity was 90% or greater)
- Herbicidal effect Monochoria vaginalis [4]: 5 (Herbicidal effect/phytotoxicity was 90% or greater)
- Herbicidal effect Scirpus juncoides [5]: 5 (Herbicidal effect/phytotoxicity was 90% or greater)
- Herbicidal effect Broadleaf weed [6]: 5 (Herbicidal effect/phytotoxicity was 90% or greater)

SMILES: COc1cccc(Oc2cc(-c3c(Cl)n4n(c3=O)CCCC4)c(F)cc2Cl)c1 [Compound 3-5]
- Herbicidal effect Cyperus difformis [1]: 5 (Herbicidal effect/phytotoxicity was 90% or greater)
- Herbicidal effect Echinochloa oryzicola [2]: 5 (Herbicidal effect/phytotoxicity was 90% or greater)
- Herbicidal effect Eleocharis acicularis [3]: 5 (Herbicidal effect/phytotoxicity was 90% or greater)
- Herbicidal effect Monochoria vaginalis [4]: 5 (Herbicidal effect/phytotoxicity was 90% or greater)
- Herbicidal effect Scirpus juncoides [5]: 5 (Herbicidal effect/phytotoxicity was 90% or greater)
- Herbicidal effect Broadleaf weed [6]: 5 (Herbicidal effect/phytotoxicity was 90% or greater)

SMILES: COc1ccc(Oc2cc(-c3c(Cl)n4n(c3=O)CCCC4)c(F)cc2Cl)cc1 [Compound 3-7]
- Herbicidal effect Cyperus difformis [1]: 5 (Herbicidal effect/phytotoxicity was 90% or greater)
- Herbicidal effect Echinochloa oryzicola [2]: 5 (Herbicidal effect/phytotoxicity was 90% or greater)
- Herbicidal effect Eleocharis acicularis [3]: 5 (Herbicidal effect/phytotoxicity was 90% or greater)
- Herbicidal effect Monochoria vaginalis [4]: 5 (Herbicidal effect/phytotoxicity was 90% or greater)
- Herbicidal effect Scirpus juncoides [5]: 5 (Herbicidal effect/phytotoxicity was 90% or greater)
- Herbicidal effect Broadleaf weed [6]: 5 (Herbicidal effect/phytotoxicity was 90% or greater)

SMILES: CC(C)Oc1ccc(Oc2cc(-c3c(Cl)n4n(c3=O)CCCC4)c(F)cc2Cl)cc1 [Compound 3-13]
- Herbicidal effect Cyperus difformis [1]: 5 (Herbicidal effect/phytotoxicity was 90% or greater)
- Herbicidal effect Echinochloa oryzicola [2]: 5 (Herbicidal effect/phytotoxicity was 90% or greater)
- Herbicidal effect Eleocharis acicularis [3]: 5 (Herbicidal effect/phytotoxicity was 90% or greater)
- Herbicidal effect Monochoria vaginalis [4]: 5 (Herbicidal effect/phytotoxicity was 90% or greater)
- Herbicidal effect Scirpus juncoides [5]: 5 (Herbicidal effect/phytotoxicity was 90% or greater)
- Herbicidal effect Broadleaf weed [6]: 5 (Herbicidal effect/phytotoxicity was 90% or greater)

SMILES: COCOc1cccc(Oc2cc(-c3c(Cl)n4n(c3=O)CCCC4)c(F)cc2Cl)c1 [Compound 3-14]
- Herbicidal effect Cyperus difformis [1]: 5 (Herbicidal effect/phytotoxicity was 90% or greater)
- Herbicidal effect Echinochloa oryzicola [2]: 5 (Herbicidal effect/phytotoxicity was 90% or greater)
- Herbicidal effect Eleocharis acicularis [3]: 5 (Herbicidal effect/phytotoxicity was 90% or greater)
- Herbicidal effect Monochoria vaginalis [4]: 5 (Herbicidal effect/phytotoxicity was 90% or greater)
- Herbicidal effect Scirpus juncoides [5]: 5 (Herbicidal effect/phytotoxicity was 90% or greater)
- Herbicidal effect Broadleaf weed [6]: 5 (Herbicidal effect/phytotoxicity was 90% or greater)

SMILES: COCOc1ccc(Oc2cc(-c3c(Cl)n4n(c3=O)CCCC4)c(F)cc2Cl)cc1 [Compound 3-15]
- Herbicidal effect Cyperus difformis [1]: 5 (Herbicidal effect/phytotoxicity was 90% or greater)
- Herbicidal effect Echinochloa oryzicola [2]: 5 (Herbicidal effect/phytotoxicity was 90% or greater)
- Herbicidal effect Eleocharis acicularis [3]: 5 (Herbicidal effect/phytotoxicity was 90% or greater)
- Herbicidal effect Monochoria vaginalis [4]: 5 (Herbicidal effect/phytotoxicity was 90% or greater)
- Herbicidal effect Scirpus juncoides [5]: 5 (Herbicidal effect/phytotoxicity was 90% or greater)
- Herbicidal effect Broadleaf weed [6]: 5 (Herbicidal effect/phytotoxicity was 90% or greater)

— patent publication US9580444B2, “Polycyclic pyrazolinone derivative and herbicide comprising same as effective component thereof” (priority 2013, dated 2017)
